Measurements as given in US9049863B2, “Substituted (3R,4R)-4-cyan-3,4-diphenylbutanoates, method for the production thereof and use thereof as herbicides and plant growth regulators” (Bayer Intellectual Property GmbH, priority 2011, dated 2015).

Columns and labels:
Type in all cases: in vivo
[1] = tested on: a plurality of harmful plants; assay: Herbicidal pre-emergence action; conditions: 320 g or less of active substance per hectare
Excerpt: Seeds of monocotyledonous and dicotyledonous weed plants and crop plants are placed in wood-fiber pots in sandy loam and covered with soil. The compounds (I) according to the invention, formulated in the form of wettable powders (WP), are then applied as aqueous suspension or emulsion at a water application rate of 600 l/ha (converted) with the addition of 0.2% of wetting agent to the surface of the covering soil.
After the treatment, the pots are placed in a greenhouse and kept under good growth conditions for the test plants. After about 3 weeks, the effect of the preparations is scored visually in comparison with untreated controls as percentages. For example, 100% activity=the plants have died, 50% herbicidal activity or damage=the plants have been reduced by 50% or the plant mass has been reduced by 50%, 0% activity=like control plants.

[2] = tested on: Alopecurus myosuroides; assay: Herbicidal action and crop plant compatibility, pre-emergence (3.2); conditions: 80 g/ha, about 4 weeks
Excerpt: (§1) 3.2 In further trials in the greenhouse, seeds of crop plants and seeds of harmful plants are placed in pots in sandy loam soil, covered with earth and cultivated under good growth conditions. The compounds (I) according to the invention, formulated in the form of wettable powders (WP), are then applied as aqueous suspension or emulsion at a water application rate of 300 l/ha (converted) with the addition of 0.2% of wetting agent to the surface of the covering soil. After the test plants have been kept in the greenhouse under optimum growth conditions for about 4 weeks, the activity of the preparations is rated visually in comparison to untreated controls in percent (%): For example, 100% activity=the plants have died, 50% herbicidal activity or damage=the plants have been reduced by 50% or the plant mass has been reduced by 50%, 0% activity=like control plants.

[3] = tested on: Amaranthus retroflexus; assay: as above; conditions: 80 g/ha, about 4 weeks
Excerpt: as §1

[4] = tested on: Avena fatua; assay: as above; conditions: 80 g/ha, about 4 weeks
Excerpt: as §1

[5] = tested on: Echinochloa crus-galli; assay: as above; conditions: 80 g/ha, about 4 weeks
Excerpt: as §1

[6] = tested on: Lolium multiflorum; assay: as above; conditions: 80 g/ha, about 4 weeks
Excerpt: as §1

[7] = tested on: Polygonum convolvulus; assay: as above; conditions: 80 g/ha, about 4 weeks
Excerpt: as §1

[8] = tested on: Setaria viridis; assay: as above; conditions: 80 g/ha, about 4 weeks
Excerpt: as §1

[9] = tested on: Veronica persica; assay: as above; conditions: 80 g/ha, about 4 weeks
Excerpt: as §1

[10] = tested on: Viola tricolor; assay: as above; conditions: 80 g/ha, about 4 weeks
Excerpt: as §1

[11] = tested on: Avena fatua; assay: Herbicidal action and crop plant compatibility, post-emergence (3.3); conditions: 80 g/ha, 4 weeks after the treatment
Description: (§2) 3.3 In further trials in the greenhouse, seeds of crop plants and seeds of harmful plants are placed in pots in sandy loam soil, covered with earth and cultivated under good growth conditions. The test plants are treated at the 2-3-leaf stage, where the compounds (I) according to the invention, formulated in the form of wettable powders (WP), are applied by spraying as aqueous suspension or emulsion at a water application rate of […] (converted) with the addition of 0.2% of wetting agent to the green parts of the plants. 4 weeks after the treatment and after the test plants have been kept in the greenhouse under optimum growth conditions, the activity of the preparations is rated visually in comparison to untreated controls in percent (%): For example, 100% activity=the plants have died, 50% herbicidal activity or damage=the plants have been reduced by 50% or the plant mass has been reduced by 50%, 0% activity=like control plants.

[12] = tested on: Echinochloa crus-galli; assay: as above; conditions: 80 g/ha, 4 weeks after the treatment
Description: as §2

[13] = tested on: Polygonum convolvulus; assay: as above; conditions: 80 g/ha, 4 weeks after the treatment
Description: as §2

[14] = tested on: Setaria viridis; assay: as above; conditions: 80 g/ha, 4 weeks after the treatment
Description: as §2

[15] = tested on: Veronica persica; assay: as above; conditions: 80 g/ha, 4 weeks after the treatment
Description: as §2

[16] = tested on: Viola tricolor; assay: as above; conditions: 80 g/ha, 4 weeks after the treatment
Description: as §2

[17] = tested on: oilseed rape; assay: as above; conditions: 80 g/ha, 4 weeks after the treatment
Description: as §2

[18] = tested on: wheat; assay: as above; conditions: 80 g/ha, 4 weeks after the treatment
Description: as §2

Row | Structure (SMILES) | herbicidal activity against a plurality of harmful plants [1] | herbicidal activity against Alopecurus myosuroides [2] | herbicidal activity against Amaranthus retroflexus [3] | herbicidal activity against Avena fatua [4] | herbicidal activity against Echinochloa crus-galli [5] | herbicidal activity against Lolium multiflorum [6] | herbicidal activity against Polygonum convolvulus [7] | herbicidal activity against Setaria viridis [8] | herbicidal activity against Veronica persica [9] | herbicidal activity against Viola tricolor [10] | herbicidal activity against Avena fatua [11] | herbicidal activity against Echinochloa crus-galli [12] | herbicidal activity against Polygonum convolvulus [13] | herbicidal activity against Setaria virides [14] | herbicidal activity against Veronica persica [15] | herbicidal activity against Viola tricolor [16] | selectivity in oilseed rape (damage) [17] | selectivity in wheat (damage) [18]
1 | COC(=O)C[C@@H](c1ccc(Cl)cc1)[C@@H](C#N)c1cccc(F)c1 [Example 1, methyl (3R,4R)-3-(4-chlorophenyl)-4-cyano-4-(3-fluorophenyl)butanoate] | good herbicidal activity | 80 to 100% | 80 to 100% | 80 to 100% | 80 to 100% | 80 to 100% | 80 to 100% | 80 to 100% | 80 to 100% | 80 to 100% |  |  |  |  |  |  |  | 
2 | CCCCOC(=O)C[C@@H](c1cccc(F)c1)[C@@H](C#N)c1ccc(F)c(F)c1 [Example 86] | good herbicidal activity |  |  |  |  |  |  |  |  |  | 90% | 80% | 80% | 80% | 70% | 80% | 0% | up to 10%
